Measured values taken from PubChem BioAssay AID330 (DTP/NCI, 2004).
Several values for one entry are separate records, joined by “and”; a condition that tells them apart may be missing. Equal values may be shown once. Inconclusive results and toxic doses are left out. The calls were made as follows: active = survival T/C of 150% or more; inactive = T/C below 125% in these data.

Tested on: P388 leukemia ip, CD2F1 mice, survival T/C
Assay: NCI In Vivo Anticancer Drug Screen. Data for tumor model P388 Leukemia (intraperitoneal) in CD2F1 (CDF1) mice
Details: endpoint: median survival time, higher = longer survival
Method in brief: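 Mice carrying the transplanted tumor received test compound or vehicle. Survival was recorded in each group, and the value is the treated-group measurement divided by that of the vehicle-treated control group.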

Measured: T/C

COc1cc2c[n+](C)c3c4cc5c(cc4ccc3c2cc1OC)OCO5
inactive: dose: 0.5 mg/kg/injection, schedule: Q01DX005 (ip), vehicle: saline 106 % of control | dose: 1.0 mg/kg/injection, schedule: Q01DX005 (ip), vehicle: saline 118 % of control | dose: 1.25 mg/kg/injection, schedule: Q01DX009 (ip), vehicle: DMSO 124 % of control | dose: 2.0 mg/kg/injection, schedule: Q01DX005 (ip), vehicle: saline 115 % of control | dose: 2.0 mg/kg/injection, schedule: Q03HX008 (ip), vehicle: water 109 % of control | dose: 2.0 mg/kg/injection, schedule: Q03HX016 (ip), vehicle: water 121 % of control | dose: 4.0 mg/kg/injection, schedule: Q01DX009 (sc), vehicle: water 97 % of control | dose: 4.0 mg/kg/injection, schedule: Q03HX008 (ip), vehicle: water 114 % of control | dose: 4.0 mg/kg/injection, schedule: Q03HX016 (ip), vehicle: water 119 % of control | dose: 8.0 mg/kg/injection, schedule: Q01DX009 (oral), vehicle: water 102 % of control | dose: 8.0 mg/kg/injection, schedule: Q01DX009 (sc), vehicle: saline with Tween-80 96 % of control | dose: 8.0 mg/kg/injection, schedule: Q01DX009 (sc), vehicle: water 97 % of control | dose: 8.0 mg/kg/injection, schedule: Q03HX008 (ip), vehicle: water 87 % of control | dose: 8.0 mg/kg/injection, schedule: Q03HX016 (ip), vehicle: water 92 % of control | dose: 8.0 mg/kg/injection, schedule: Q04DX003 (ip), vehicle: water 113 % of control | dose: 16.0 mg/kg/injection, schedule: Q01DX001 (ip), vehicle: water 106 % of control | dose: 16.0 mg/kg/injection, schedule: Q01DX001 (oral), vehicle: water 103 % of control | dose: 16.0 mg/kg/injection, schedule: Q01DX001 (sc), vehicle: water 98 % of control | dose: 16.0 mg/kg/injection, schedule: Q01DX009 (oral), vehicle: water 94 % of control | dose: 16.0 mg/kg/injection, schedule: Q01DX009 (sc), vehicle: saline with Tween-80 97 % of control | dose: 16.0 mg/kg/injection, schedule: Q04DX003 (ip), vehicle: water 119 % of control | dose: 16.0 mg/kg/injection, schedule: Q08DX002 (ip), vehicle: water 112 % of control | dose: 25.0 mg/kg/injection, schedule: Q01DX009 (ip), vehicle: saline with Tween-80 114 % of control | dose: 25.0 mg/kg/injection, schedule: Q01DX009 (ip), vehicle: water 100 % of control and 87 % of control | dose: 32.0 mg/kg/injection, schedule: Q01DX001 (ip), vehicle: water 102 % of control | dose: 32.0 mg/kg/injection, schedule: Q01DX001 (oral), vehicle: water 103 % of control | dose: 32.0 mg/kg/injection, schedule: Q01DX001 (sc), vehicle: saline with Tween-80 100 % of control | dose: 32.0 mg/kg/injection, schedule: Q01DX001 (sc), vehicle: water 101 % of control | dose: 32.0 mg/kg/injection, schedule: Q01DX009 (ip), vehicle: saline with Tween-80 100 % of control | dose: 32.0 mg/kg/injection, schedule: Q01DX009 (oral), vehicle: saline with Tween-80 107 % of control | dose: 32.0 mg/kg/injection, schedule: Q01DX009 (oral), vehicle: water 93 % of control | dose: 32.0 mg/kg/injection, schedule: Q01DX009 (sc), vehicle: saline with Tween-80 92 % of control | dose: 32.0 mg/kg/injection, schedule: Q03HX016 (ip), vehicle: saline with Tween-80 100 % of control | dose: 32.0 mg/kg/injection, schedule: Q04DX003 (ip), vehicle: water 119 % of control | dose: 32.0 mg/kg/injection, schedule: Q08DX002 (ip), vehicle: water 113 % of control | dose: 40.0 mg/kg/injection, schedule: Q01DX009 (ip), vehicle: saline 105 % of control and 96 % of control | dose: 64.0 mg/kg/injection, schedule: Q01DX001 (ip), vehicle: water 117 % of control | dose: 64.0 mg/kg/injection, schedule: Q01DX001 (oral), vehicle: water 102 % of control | dose: 64.0 mg/kg/injection, schedule: Q01DX001 (sc), vehicle: saline with Tween-80 98 % of control | dose: 64.0 mg/kg/injection, schedule: Q01DX001 (sc), vehicle: water 95 % of control | dose: 64.0 mg/kg/injection, schedule: Q01DX009 (oral), vehicle: saline with Tween-80 100 % of control | dose: 64.0 mg/kg/injection, schedule: Q01DX009 (oral), vehicle: water 101 % of control | dose: 64.0 mg/kg/injection, schedule: Q01DX009 (sc), vehicle: saline with Tween-80 87 % of control | dose: 64.0 mg/kg/injection, schedule: Q08DX002 (ip), vehicle: water 115 % of control | dose: 120.0 mg/kg/injection, schedule: Q04DX003 (ip), vehicle: distilled water + Tween-80 99 % of control | dose: 128.0 mg/kg/injection, schedule: Q01DX001 (oral), vehicle: water 95 % of control | dose: 128.0 mg/kg/injection, schedule: Q01DX001 (sc), vehicle: saline with Tween-80 97 % of control | dose: 128.0 mg/kg/injection, schedule: Q01DX009 (oral), vehicle: saline with Tween-80 100 % of control | dose: 128.0 mg/kg/injection, schedule: Q01DX009 (oral), vehicle: water 103 % of control | dose: 128.0 mg/kg/injection, schedule: Q01DX009 (sc), vehicle: saline with Tween-80 88 % of control | dose: 128.0 mg/kg/injection, schedule: Q04DX003 (ip), vehicle: other 107 % of control | dose: 200.0 mg/kg/injection, schedule: Q04DX002 (ip), vehicle: Klucel (hydroxypropylcellulose) (HPC) 105 % of control and 122 % of control | dose: 256.0 mg/kg/injection, schedule: Q01DX001 (oral), vehicle: saline with Tween-80 104 % of control | dose: 256.0 mg/kg/injection, schedule: Q01DX001 (sc), vehicle: saline with Tween-80 106 % of control | dose: 256.0 mg/kg/injection, schedule: Q01DX009 (oral), vehicle: saline with Tween-80 100 % of control | dose: 400.0 mg/kg/injection, schedule: Q04DX002 (ip), vehicle: Klucel (hydroxypropylcellulose) (HPC) 87 % of control | dose: 512.0 mg/kg/injection, schedule: Q01DX001 (oral), vehicle: saline with Tween-80 106 % of control | dose: 512.0 mg/kg/injection, schedule: Q01DX001 (sc), vehicle: saline with Tween-80 97 % of control | dose: 512.0 mg/kg/injection, schedule: Q01DX009 (oral), vehicle: saline with Tween-80 97 % of control | dose: 1024.0 mg/kg/injection, schedule: Q01DX001 (oral), vehicle: saline with Tween-80 100 % of control | dose: 2048.0 mg/kg/injection, schedule: Q01DX001 (oral), vehicle: saline with Tween-80 102 % of control
active: dose: 2.0 mg/kg/injection, schedule: Q03HX024 (ip), vehicle: saline with Tween-80 150 % of control | dose: 4.0 mg/kg/injection, schedule: Q01DX009 (ip), vehicle: saline 152 % of control | dose: 5.0 mg/kg/injection, schedule: Q01DX009 (ip), vehicle: DMSO 153 % of control | dose: 8.0 mg/kg/injection, schedule: Q01DX009 (ip), vehicle: saline with Tween-80 166 % of control | dose: 8.0 mg/kg/injection, schedule: Q01DX009 (ip), vehicle: saline 152 % of control | dose: 8.0 mg/kg/injection, schedule: Q03HX016 (ip), vehicle: saline with Tween-80 153 % of control | dose: 8.0 mg/kg/injection, schedule: Q03HX024 (ip), vehicle: saline with Tween-80 165 % of control | dose: 10.0 mg/kg/injection, schedule: Q01DX009 (ip), vehicle: DMSO 153 % of control and 155 % of control | dose: 16.0 mg/kg/injection, schedule: Q01DX009 (ip), vehicle: saline with Tween-80 157 % of control | dose: 16.0 mg/kg/injection, schedule: Q01DX009 (ip), vehicle: saline 171 % of control | dose: 16.0 mg/kg/injection, schedule: Q03HX008 (ip), vehicle: saline with Tween-80 167 % of control | dose: 20.0 mg/kg/injection, schedule: Q01DX009 (ip), vehicle: DMSO 155 % of control and 163 % of control and 190 % of control | dose: 20.0 mg/kg/injection, schedule: Q01DX009 (ip), vehicle: saline 191 % of control | dose: 32.0 mg/kg/injection, schedule: Q01DX005 (ip), vehicle: saline 168 % of control | dose: 32.0 mg/kg/injection, schedule: Q01DX009 (ip), vehicle: water 185 % of control | dose: 32.0 mg/kg/injection, schedule: Q03HX008 (ip), vehicle: saline with Tween-80 161 % of control | dose: 32.0 mg/kg/injection, schedule: Q04DX003 (ip), vehicle: other 154 % of control | dose: 64.0 mg/kg/injection, schedule: Q04DX003 (ip), vehicle: other 150 % of control and 181 % of control | dose: 64.0 mg/kg/injection, schedule: Q04DX003 (ip), vehicle: saline with Tween-80 151 % of control | dose: 100.0 mg/kg/injection, schedule: Q04DX002 (ip), vehicle: Klucel (hydroxypropylcellulose) (HPC) 154 % of control | dose: 128.0 mg/kg/injection, schedule: Q04DX003 (ip), vehicle: saline with Tween-80 166 % of control | dose: 128.0 mg/kg/injection, schedule: Q08DX002 (ip), vehicle: saline with Tween-80 155 % of control | dose: 256.0 mg/kg/injection, schedule: Q01DX001 (ip), vehicle: saline with Tween-80 161 % of control | dose: 256.0 mg/kg/injection, schedule: Q08DX002 (ip), vehicle: saline with Tween-80 160 % of control
